Test results from PubChem BioAssay AID256 (DTP/NCI, 2004).
Several values for one entry are separate records, joined by “and”; a condition that tells them apart may be missing. Identical values can stand only once. Toxic doses and inconclusive results are not listed. The calls were made as follows: active = survival T/C of 150% or more; inactive = T/C below 125% in these data.

System: CD2F1 mice, L1210 leukemia ip, survival T/C
Experiment: NCI In Vivo Anticancer Drug Screen. Data for tumor model L1210 Leukemia (intraperitoneal) in CD2F1 (CDF1) mice
Conditions: higher = longer survival
Procedure: The antitumor activity of compounds was measured in mice bearing transplantable tumors. Survival or tumor size were measured and the results are expressed as the measurement made in the treated group (T) divided by the measurement made in the vehicle treated control group (C). The tumor model used in this assay is L1210 Leukemia (intraperitoneal) in CD2F1 (CDF1) mice

[1] = endpoint: mean survival time, dose: 50.0 mg/kg/injection, schedule: Q01DX009 (ip), vehicle: saline with Tween-80
[2] = endpoint: mean survival time, dose: 100.0 mg/kg/injection, schedule: Q01DX009 (ip), vehicle: saline with Tween-80
[3] = endpoint: mean survival time, dose: 200.0 mg/kg/injection, schedule: Q01DX009 (ip), vehicle: saline with Tween-80
[4] = endpoint: mean survival time, dose: 100.0 mg/kg/injection, schedule: Q04DX003 (ip), vehicle: saline with Tween-80
[5] = endpoint: mean survival time, dose: 200.0 mg/kg/injection, schedule: Q04DX003 (ip), vehicle: saline with Tween-80
[6] = endpoint: mean survival time, dose: 400.0 mg/kg/injection, schedule: Q04DX003 (ip), vehicle: saline with Tween-80
[7] = endpoint: mean survival time, dose: 400.0 mg/kg/injection, schedule: Q01DX009 (ip), vehicle: saline with Tween-80

Measured: T/C

NC(=O)c1ccccc1NC(=O)Nc1ccc(Cl)c(C(F)(F)F)c1
inactive: [1] 87 % of control | [2] 96 % of control | [3] 93 % of control

Oc1ccc(/C=N/N=C/c2ccc(O)c(O)c2)cc1O
inactive: endpoint: median survival time, dose: 25.0 mg/kg/injection, schedule: Q01DX009 (ip), vehicle: saline with Tween-80 108 % of control | endpoint: median survival time, dose: 50.0 mg/kg/injection, schedule: Q01DX009 (ip), vehicle: saline with Tween-80 110 % of control | endpoint: median survival time, dose: 100.0 mg/kg/injection, schedule: Q01DX009 (ip), vehicle: saline with Tween-80 112 % of control

C[N+](C)(CCCCCC[N+](C)(C)Cc1ccccc1)Cc1ccccc1
inactive: endpoint: mean survival time, dose: 1.25 mg/kg/injection, schedule: Q01DX009 (ip), vehicle: saline with Tween-80 93 % of control | endpoint: mean survival time, dose: 2.5 mg/kg/injection, schedule: Q01DX009 (ip), vehicle: saline with Tween-80 93 % of control | endpoint: mean survival time, dose: 5.0 mg/kg/injection, schedule: Q01DX009 (ip), vehicle: saline with Tween-80 93 % of control | endpoint: median survival time, dose: 0.63 mg/kg/injection, schedule: Q04DX002 (ip), vehicle: saline with Tween-80 112 % of control | endpoint: median survival time, dose: 1.25 mg/kg/injection, schedule: Q04DX002 (ip), vehicle: saline with Tween-80 100 % of control | endpoint: median survival time, dose: 2.5 mg/kg/injection, schedule: Q04DX002 (ip), vehicle: saline with Tween-80 100 % of control | endpoint: median survival time, dose: 5.0 mg/kg/injection, schedule: Q04DX002 (ip), vehicle: saline with Tween-80 100 % of control

S=C(S)OCc1ccccc1.[Pt]
inactive: endpoint: mean survival time, dose: 25.0 mg/kg/injection, schedule: Q04DX003 (ip), vehicle: saline with Tween-80 102 % of control | endpoint: mean survival time, dose: 50.0 mg/kg/injection, schedule: Q04DX003 (ip), vehicle: saline with Tween-80 102 % of control | [4] 104 % of control | [5] 102 % of control | [6] 104 % of control

ClCC(CCl)c1nncc2ccccc12
inactive: endpoint: mean survival time, dose: 100.0 mg/kg/injection, schedule: Q01DX001 (ip), vehicle: saline 94 % of control | endpoint: mean survival time, dose: 200.0 mg/kg/injection, schedule: Q01DX001 (ip), vehicle: saline 97 % of control | endpoint: mean survival time, dose: 400.0 mg/kg/injection, schedule: Q01DX001 (ip), vehicle: saline 93 % of control

CC(c1ccccc1)C(OC(=O)c1ccc([N+](=O)[O-])cc1)c1ccccc1 (configuration not stated)
inactive: [2] 97 % of control | [4] 98 % of control | [3] 94 % of control | [5] 94 % of control | [7] 91 % of control | [6] 98 % of control

Cc1cc(C)[nH]c(=S)n1
inactive: [1] 100 % of control | [2] 96 % of control | [3] 96 % of control

CN(C)c1ccc(C(Cc2ccc(Nc3ccccc3)c3ccccc23)=C2C=CC(=[N+](C)C)C=C2)cc1
inactive: endpoint: mean survival time, dose: 3.13 mg/kg/injection, schedule: Q01DX001 (ip), vehicle: saline 96 % of control | endpoint: mean survival time, dose: 6.25 mg/kg/injection, schedule: Q01DX001 (ip), vehicle: saline 93 % of control | endpoint: mean survival time, dose: 12.5 mg/kg/injection, schedule: Q01DX001 (ip), vehicle: saline 118 % of control and 93 % of control | endpoint: mean survival time, dose: 25.0 mg/kg/injection, schedule: Q01DX001 (ip), vehicle: saline 106 % of control

COCCCNC1=C(C#N)C(=O)NC(c2cccc([N+](=O)[O-])c2)S1 (configuration not stated)
inactive: endpoint: mean survival time, dose: 12.5 mg/kg/injection, schedule: Q01DX009 (ip), vehicle: saline with Tween-80 94 % of control | endpoint: mean survival time, dose: 25.0 mg/kg/injection, schedule: Q01DX009 (ip), vehicle: saline with Tween-80 96 % of control | [1] 96 % of control | [2] 100 % of control | [3] 102 % of control | [7] 103 % of control

Cc1cc2nc3ccc(=[N+](C)C)cc-3sc2cc1N
inactive: endpoint: mean survival time, dose: 25.0 mg/kg/injection, schedule: Q04DX003 (ip), vehicle: saline 109 % of control | endpoint: mean survival time, dose: 50.0 mg/kg/injection, schedule: Q04DX003 (ip), vehicle: saline 102 % of control
